Measurements taken from US20120131697A1, “GENE ENCODING AUXIN RECEPTOR PROTEIN DERIVED FROM RICE AND USE THEREOF” (REPUBLIC OF KOREA (MANAGEMENT: RURAL DEVELOPMENT …, priority 2009, published 2012).

B1: recombinant protein: recombinant auxin receptor protein ABP57 from rice, expressed in E. coli as MBP fusion, MBP removed (SEQ ID NO: 1) (protein, listed as Oryza sativa)
chain: MAEIVSSVVVHEAVNQIIHGLVNWNERKSSAEENMERLEMAHIRLEAALETSCKWRITDSSLLCWQKKLKRAAQECDDTLRKCRQRILEQEEAEQEVRNSSIPRRIAHATKSLVSSLFYSNIDGSCRSAVRRFEWFADGANEFLRFVEFGGTPHQYLFFDPLIRQLLAGKTLEYKLVSENKYRLFVIRPFCISENRIEARLIFDSKNASALEDDFFLCMLLQVSESVDILGIVIKCLQLFNPHFMSTAESVRNELTQLPSQDFTWVPYAESCHKKHWDNIHSITTQWFRPNPLCCKQHGQNHSCESSNLGMPSVQGVSLGPVIEVSLQCHVPVPEFREQGTIVKGKPSLKKCPHMKVDLVYTPHGSSQDLLPEIKSSVIEVINGDKQHCLHTNIALELMEEIMLPRAVDCFHENAEAKLYQMLWKSKHGGAYLQVMKATMNTRSTQRTIRGSRKAKLLQQQGHKTQHRTNAISDFLNLWSAHAPVQLQGSILDWIQKEKEAQLAPPLLRLKF

Columns and labels:
ABP57 = ABP57 (Oryza sativa subsp. japonica, UniProt B7ELI0); assay: Scatchard analysis of binding between recombinant ABP57 and auxin hormone IAA; design: species or system rice; details: recombinant protein
[1] = tested on: proton pump in plasma membrane; assay: Activation of proton pump in rice plasma membrane by ABP57 protein (fluorescence analyzer, Hill plot); assay type: biochemical
Description: The purified protein and the proton pump in plasma membrane, which had been separated from rice, were admixed with each other, and then the activity of proton pump was measured by fluorescence analyzer.
The change in degree of activating proton pump according to concentration of the recombinant protein was measured and analyzed by Hill plot analysis. […] Further, this value was very close to the Hill coefficient of 0.97, which was obtained by previous studies for the interaction between the proton pump and natural ABP57 (FIG. 8).

Molecule	Kd (ABP57; FIG. 9, read-out: IAA dissociation constant)	number of binding site (ABP57; corresponds to low affinity binding site of natural ABP57)	Hill coefficient ([1]; degree of activating proton pump according to concentration of recombinant protein, Hill plot, FIG. 8)	activity of proton pump ([1]; purified recombinant protein admixed with proton pump in plasma membrane separated from rice, FIG. 7)
O=C(O)Cc1c[nH]c2ccccc12 [IAA, indole-3-acetic acid]	3.6 µM	1		
B1			0.94	increase in the activity of proton pump
